Tested on: α-glucosidase (EC 3.2.1.20) derived from pig liver

Substance: α-Glucosyl naringin
- hydrolysis by α-glucosidase: hydrolyzed α-glucosyl naringin into naringin and D-glucose
